Experimental data taken from US20260015341A1, “PI3K INHIBITOR, PREPARATION METHOD THEREFOR, AND USE THEREOF” (HINOVA PHARMACEUTICALS INC., priority 2022, published 2026).

Columns and labels:
[1] = target: PI3Kα[WT]/[E542K]/[E545K]/[H1047R]/PI3Kβ/γ/δ; test: PI3K enzyme activity assay (ADP-Glo); type: biochemical; conditions: PI3K kinase reaction, isoform not given
Protocol: Experimental Example 1: PI3Kα[WT]/[E542K]/[E545K]/[H1047R]/PI3Kβ/γ/δ Enzyme Activity Assay
PI3Kα[WT], PI3Kα[E542K], PI3Kα[E545K], PI3Kα[H1047R], PI3Kβ, PI3Kγ and PI3Kδ kinase reaction was performed in 384-well plate (PerkinElmer, #6008280), with a reaction system of 4 μL. PI3Kα[WT] enzyme solution (Promega, #V1721) or PI3Kα[E542K] enzyme solution (CarnaBio, #11-413-20N) or PI3Kα[E545K] enzyme solution (CarnaBio, #11-414-20N) or PI3Kα[H1047R] enzyme solution (Promega, #V1741) or PI3Kβ enzyme solution (Promega, #V1751) or PI3Kγ enzyme solution (ThermoFisher, #PV4786) or PI3Kδ enzyme solution (ThermoFisher, #PV6451) were added to 384-well plate, and then gradiently diluted compounds were added (starting at a final concentration of 10 μM, 3-fold dilution, 10 doses), followed by adding PIP2: 3PS (Promega, #V1701) and ATP solution (Promega, #V915B) to the plate. After incubation at 25° C. for 1 h, ADP-Glo reagent buffer (Promega, #V9102) was added to each well. The plate was sealed and incubated at 25° C. for 40 min, and then 10 μL of ADP-Glo detection buffer (Promega, #V9102) was added to each well. After incubating at 25° C. for 40 min, the chemiluminescence value was read using an instrument.
The experimental results are shown in the ADP Glo IC50 column in Table 2.

T47D cells = test: Inhibitory effects on the proliferation of T47D cells (CellTiter-Glo); type: cell-based; conditions: 7 days
Protocol: Experimental Example 3: Experiment of Inhibitory Effects on the Proliferation of T47D Cells
T47D cells (ATCC. #HTB-133) were diluted with RPMI 1640 (Gibco #22400-089) containing 10% FBS (Hyclone #SH30084.03), seeded in 96-well plate (Biosharp #BS-MP-96W) at 1000 cells/well, and then cultured for 24 h. Then, gradiently diluted compounds were added (starting at a final concentration of 10 μM, 3-fold dilution, 9 dose concentrations), and the final volume was adjusted to 150 μL/well. The plate was incubated at 37° C. under […] for 7 days. After the cultivation was completed, CellTiter-Glo reagent (Promega #G7573) was added at 75 μL/well, and then the plate was further incubated at 25° C. for 10 min. After that, the chemiluminescence value was read using an instrument.
The results are shown in the T47D IC50 column in Table 2.

MCF-10A cells = test: Inhibitory effects on the proliferation of MCF-10A cells (CCK8); type: cell-based; conditions: 6 days
Protocol: Experimental Example 2: Experiment of Inhibitory Effects on the Proliferation of MCF-10A Cells
MCF-10A cells (Cobioer Bio. #CBP60419MCF) were diluted with complete medium (Cobioer Bio. #CBP60419), seeded in 96-well plate (Corning #3599) at 500 cells/well, and then cultured for 24 h. Then, gradiently diluted compounds were added (starting at a final concentration of 10 μM, 3-fold dilution, 9 dose concentrations), and the final volume was adjusted to 100 μL/well. The plate was incubated at 37° C. under 5% CO2 for 6 days. After the cultivation was completed, CCK8 reagent (Signalway Antibody Bio. #CP002) was added at 10 μL/well, and then the plate was further incubated at 37° C. under 5% CO2 for 2-3 hours. The OD450 nm value was obtained by a microplate reader.
The results are shown in the MCF-OA IC50 column in Table 2.

Row | Structure (SMILES) | IC50 [1] | IC50 (T47D cells; Homo sapiens, 168 h) | IC50 (MCF-10A cells; Homo sapiens, 144 h) | IC50 (T47D cells) | IC50 (MCF-10A cells)
1 | Cc1cc([C@@H](C)NC2CCC(=O)NC2=O)c2oc(-c3ccc(F)cc3F)cc(=O)c2c1 (stereo partly drawn) [Compound 117] | > 5 µM | > 5 µM | > 5 µM |  | 
2 | Cc1cc([C@@H](C)Nc2ccc(Cl)nc2C(=O)O)c2oc(-c3ccc4c(c3)OC(F)(F)O4)cc(=O)c2c1 [Compound 46] | < 1 µM | < 1 µM | > 5 µM |  | 
3 | C[C@@H](Nc1ccc(Cl)nc1C(=O)O)c1cc(F)cc2c(=O)n(C)c(-c3ncc(Cl)cn3)nc12 [Compound 99] | < 1 µM | < 1 µM | > 5 µM |  | 
4 | C[C@@H](Nc1cccc(F)c1C(=O)O)c1cc(F)cc2c(=O)n(C)c(-c3ccc(F)cn3)nc12 [Compound 73] | < 1 µM | 1 to 5 µM | > 5 µM |  | 
5 | Cc1cc([C@@H](C)Nc2ccccc2C(=O)O)c2[nH]c(-c3ccc(F)cn3)[n+](C)c(=O)c2c1 [Compound 69] | < 1 µM |  |  | < 1 µM | > 5 µM
6 | Cc1cc([C@@H](C)Nc2ccccc2C(=O)O)c2oc(-c3ccc4c(c3)OC(F)(F)O4)cc(=O)c2c1 [Compound 43] | < 1 µM | < 1 µM | > 5 µM |  | 
7 | Cc1cc([C@@H](C)Nc2ccc(Cl)nc2C(=O)O)c2nc(-c3cc(F)ccc3F)n(C)c(=O)c2c1 [Compound 60] | < 1 µM | < 1 µM | > 5 µM |  | 
8 | Cc1cc([C@@H](C)N[S@+]([O-])C(C)(C)C)c2nc(N3CCC(C)(C)CC3)n(C)c(=O)c2c1 [Compound 5] | 1 to 5 µM |  |  |  | 
9 | Cc1cc([C@@H](C)Nc2ccccc2S(N)(=O)=O)c2oc(-c3ccc(F)cc3F)cc(=O)c2c1 [Compound 27, (R)-2-((1-(2-(2,4-difluorophenyl)-6-methyl-4-oxo-4H-chromen-8-yl)ethyl)amino)benzenesulfonamide] | > 5 µM | > 5 µM | > 5 µM |  | 
10 | Cc1ccc(N[C@H](C)c2cc(C)cc3c(=O)n(C)c(-c4c(F)cccc4F)nc23)c(C(=O)O)c1 [Compound 38] | < 1 µM |  |  |  | 
11 | Cc1cc([C@@H](C)Nc2ccccc2NS(C)(=O)=O)c2oc(-c3ccc(F)cc3F)cc(=O)c2c1 [Compound 28] | 1 to 5 µM | < 1 µM | > 5 µM |  | 
12 | COC(=O)c1nc(Cl)ccc1N[C@H](C)c1cc(C)cc2c(=O)n(C)c(-c3ccncc3)nc12 [Compound 103] | < 1 µM | < 1 µM | > 5 µM |  | 
13 | Cc1cc([C@@H](C)Nc2ccc[nH]c2=O)c2oc(-c3ccc(F)cc3F)cc(=O)c2c1 [Compound 62] | < 1 µM | 1 to 5 µM | > 5 µM |  | 
14 | Cc1cc([C@@H](C)Nc2ccsc2C(=O)O)c2nc(-c3ccc(F)cn3)n(C)c(=O)c2c1 [Compound 82] | < 1 µM | > 5 µM | > 5 µM |  | 
15 | Cc1cc([C@@H](C)Nc2ccccc2C(=O)O)c2nc(-c3ccc(F)cc3F)cc(=O)n2c1 [Compound 41, (R)-2-((1-(2-(2,4-difluorophenyl)-7-methyl-4-oxo-4H-pyrido[1,2-a]pyrimidin-9-yl)ethyl)amino)benzoic Acid] | < 1 µM | 1 to 5 µM | > 5 µM |  | 
16 | Cc1cc([C@@H](C)Nc2ccccc2C(O)C(F)(F)F)c2oc(-c3ccc(F)cc3F)cc(=O)c2c1 (stereo partly drawn) [Compound 57, 2-(2,4-difluorophenyl)-6-methyl-8-((1R)-1-((2-(2,2,2-trifluoro-1-hydroxyethyl)phenyl)amino)ethyl)-4H-chromen-4-one] | < 1 µM | > 5 µM | > 5 µM |  | 
17 | [2H]C([2H])([2H])NC(=O)c1ncccc1N[C@H](C)c1cc(C)cc2c(=O)cc(-c3ccc(F)cc3F)oc12 [Compound 48, (R)-3-((1-(2-(2,4-difluorophenyl)-6-methyl-4-oxo-4H-chromen-8-yl)ethyl)amino)-N-(methyl-d3)picolinamide] | 1 to 5 µM | 1 to 5 µM | > 5 µM |  | 
18 | Cc1cc([C@@H](C)Nc2cccc(F)c2C(=O)O)c2nc(-c3ccc(F)cc3)n(C)c(=O)c2c1 [Compound 72] | < 1 µM | 1 to 5 µM | > 5 µM |  | 
19 | Cc1cc([C@@H](C)Nc2cccc3c2C(=O)NC3=O)c2oc(-c3ccc(F)cc3F)cc(=O)c2c1 [Compound 55] | 1 to 5 µM | > 5 µM | > 5 µM |  | 
20 | Cc1cc([C@@H](C)Nc2cccc(F)c2C(=O)O)c2nc(-c3ccc(C(F)(F)F)cn3)n(C)c(=O)c2c1 [Compound 71] | 1 to 5 µM | > 5 µM | > 5 µM |  | 
21 | Cc1cc([C@@H](C)Nc2ccc(Cl)nc2C(=O)O)c2nc(-c3c(C)nn(C)c3C)n(C)c(=O)c2c1 [Compound 53] | < 1 µM | < 1 µM | 1 to 5 µM |  | 
22 | Cc1cc([C@@H](C)Nc2ccccc2C(=O)O)c2nc(-c3ccc(F)cc3)n(C)c(=O)c2c1 [Compound 61] | < 1 µM | < 1 µM | > 5 µM |  | 
23 | Cc1cc([C@@H](C)Nc2cccc(F)c2C(=O)O)c2nc(-c3ccc(F)cn3)n(C)c(=O)c2c1 [Compound 70] | < 1 µM | 1 to 5 µM | > 5 µM |  | 

Now from value to compound, other results behind:

Row | IC50 [1] | IC50 (T47D cells; Homo sapiens, 168 h) | Structure (SMILES) | IC50 (MCF-10A cells; Homo sapiens, 144 h) | IC50 (T47D cells) | IC50 (MCF-10A cells)
24 | < 1 µM | < 1 µM | Cc1cc([C@@H](C)Nc2ccccc2C(=O)O)c2nc(N3CCC(C)(C)CC3)n(C)c(=O)c2c1 [Compound 6, (R)-2-((1-(2-(4,4-dimethylpiperidin-1-yl)-3,6-dimethyl-4-oxo-3,4-dihydroquinazolin-8-yl)ethyl)amino)benzoic Acid] |  |  | 
25 | < 1 µM | < 1 µM | Cc1cc([C@@H](C)Nc2ccccc2C(=O)O)c2oc(C3CCC(F)(F)CC3)cc(=O)c2c1 [Compound 58, (R)-2-((1-(2-(4,4-difluorocyclohexyl)-6-methyl-4-oxo-4H-chromen-8-yl)ethyl)amino)benzoic Acid] | > 5 µM |  | 
26 | < 1 µM | < 1 µM | Cc1cc([C@@H](C)Nc2ccccc2C(=O)O)c2nc(-c3ccc(F)cc3F)n(C)c(=O)c2c1 [Compound 45] | > 5 µM |  | 
27 | < 1 µM |  | Cc1cc([C@@H](C)Nc2ccccc2C(=O)O)c2nc(-c3c(F)cccc3F)n(C)c(=O)c2c1 [Compound 37, (R)-2-((1-(2-(2,6-difluorophenyl)-3,6-dimethyl-4-oxo-3,4-dihydroquinazolin-8-yl)ethyl)amino)benzoic Acid] |  |  | 
28 | < 1 µM | < 1 µM | C[C@@H](Nc1ccc(F)cc1C(=O)O)c1cc(F)cc2c(=O)n(C)c(-c3ccc(F)cn3)nc12 [Compound 77] | > 5 µM |  | 
29 | 1 to 5 µM |  | Cc1cc([C@@H](C)Nc2ccnn2C)c2oc(-c3ccc(F)cc3F)cc(=O)c2c1 [Compound 42] |  |  | 
30 | < 1 µM | < 1 µM | Cc1cc([C@@H](C)Nc2ccc(Cl)nc2C(=O)O)c2nc(-c3ccc(F)cc3F)n(C)c(=O)c2c1 [Compound 44] | > 5 µM |  | 
31 | < 1 µM | < 1 µM | Cc1cc([C@@H](C)Nc2ccccc2C(=O)O)c2nc(-c3cc(F)ccc3F)n(C)c(=O)c2c1 [Compound 59] | > 5 µM |  | 
32 | < 1 µM | < 1 µM | C[C@@H](Nc1ccc(Cl)nc1C(=O)O)c1cc(F)cc2c(=O)n(C)c(-c3ncccn3)nc12 [Compound 100] | > 5 µM |  | 
33 | < 1 µM | < 1 µM | C[C@@H](Nc1ccc(Cl)cc1C(=O)O)c1cc(F)cc2c(=O)n(C)c(-c3ccc(F)cn3)nc12 [Compound 80] | > 5 µM |  | 
